What was measured:
[1] = tested on: adult patients (aged 18-64 years) with TRD; assay: Severity of recurrent clinician-reported AEs (0 no AE, 1 mild, 2 moderate, 3 severe); assay type: in vivo, human
Description: Patients were monitored for >90 minutes after ESK administration at each treatment session, after which time they could leave the clinical site at the clinician's discretion. AEs were monitored and reported, and safety assessments, including clinical laboratory tests and physical examinations, were conducted throughout the study. Clinician-reported AEs were categorized as mild, moderate, or severe based on clinical judgement (Table 1).
(§1) This analysis included any treatment sessions in which patients received ESK (either open-label or blinded). The occurrence and severity of AEs were assessed within the following timeframes: Month 1 (Week 1 and Weeks 2-4), Month 2 (Weeks 5-8), Months 3-6 and Months 6-12. Severity of clinician-reported AEs were scored as 0 (no AE), 1 (mild), 2 (moderate), and 3 (severe). To examine AEs in individual patients over time, only patients who received at least one ESK dose in the following period were included in the analyses of each respective period. Thus, patient data were retained in (i) Week 1 if the patient received ≥1 ESK dose in Weeks 2-4, (ii) Weeks 2-4 if the patient received ≥1 ESK dose in Weeks 5-8, (iii) Weeks 5-8 if the patient received ≥1 ESK dose in Months 3-6, and (iv) Months 3-6 if the patient received ≥1 ESK dose in Months 6-12.
Week 1 and Week 4 were set a priori as index weeks because they are the beginning and end of the induction period. Frequencies and maximum-reported severities of AEs reported during these index weeks served as stratifying variables by which to examine recurrence and severities of AE recurrences in future timeframes.

[2] = tested on: adult patients (aged 18-64 years) with TRD; assay: CADSS-defined dissociation (CADSS total score >4); assay type: in vivo, human; settings: for mean individual CADSS scores at recurrence: across follow-up timeframes
Source text: One of skill in the art would readily be able to measure a patient's adverse events from experience and one or more tools utilized to make such assessments. For example, the Clinician-Administered Dissociative States Scale (CADSS) is an technique utilized to measure present-state dissociative symptoms, and, thus, may be utilized to assess treatment-emergent dissociative symptoms. The CADSS consists of 23 subjective items, divided into 3 components: Depersonalization (Items 3 to 7, 20, and 23), derealization (Items 1, 2, 8 to 13, 16 to 19, and 21) and amnesia (Items 14, 15, and 22). Participant's responses are coded on a 5-point scale (0=not at all through to 4=extremely). Thus, higher CADSS values represent a worse dissociative state, whereas lower CADSS values are indicative of a mild dissociative state.
Vital signs, the Clinician-Administered Dissociative States Scale (CADSS), and the Modified Observer's Assessment of Alertness/Sedation (MOAA/S) were assessed at baseline and all treatment sessions (predose, and at 40 minutes, 1 hour [vital signs only unless spontaneously reported by the patient], and 1.5 hours postdose). Routine blood pressure (BP) readings were conducted at each treatment session, with elevations reported as AEs based on the clinician's judgement. The CADSS assessed treatment-emergent dissociative symptoms and consists of 23 questions, each coded on a 5-point scale (0=not at all, 1-mild, 2-moderate, 3=severe, 4-extreme), yielding a total score 0-92.11 A CADSS total score >4 indicated the presence of dissociative symptoms. The MOAA/S assessed treatment-emergent sedation: scores range from (=no response to painful stimulus to 5=readily responds to name spoken in normal tone. Any decrease in MOAA/s from pre-dose (score <5) indicated some degree of sedation. An abnormal elevation in BP was defined as systolic BP ≥180 mmHg and ≥20 mmHg higher than baseline and/or diastolic BP ≥105 mmHg and ≥15 mmHg greater than baseline.
as §1

**Q.** For `CN[C@]1(c2ccccc2Cl)CCCCC1=O` [esketamine, (S)-2-(2-chlorophenyl)-2-(methylamino)cyclohexanone], which “clinician-reported dissociation mean recurrence severity score” value ([1]; AE moderate in Week 1, Months 3-6) is on record?
**A.** 1.4

**Q.** What about the “clinician-reported dissociation mean recurrence severity score” value ([1]; AE moderate in Week 1, Months 6-12) of the same compound?
**A.** 1.5

**Q.** And the “clinician-reported dissociation mean recurrence severity score” value ([1]; AE moderate in Week 1, Weeks 2-4)?
**A.** 1.5

**Q.** And the “clinician-reported dissociation mean recurrence severity score” value ([1]; AE moderate in Week 1, Weeks 5-8)?
**A.** 1.3

**Q.** What about the “clinician-reported dissociation mean recurrence severity score” value ([1]; AE severe in Week 1, Months 3-6) of the same compound?
**A.** 1.2

**Q.** And the “clinician-reported dissociation mean recurrence severity score” value ([1]; AE severe in Week 1, Months 6-12)?
**A.** 1.6

**Q.** And the “clinician-reported dissociation mean recurrence severity score” value ([1]; AE severe in Week 1, Weeks 2-4)?
**A.** 1.5

**Q.** And the “clinician-reported dissociation mean recurrence severity score” value ([1]; AE severe in Week 1, Weeks 5-8)?
**A.** 1.8

**Q.** What about the “patients with a severe recurrence” value ([1]; all clinician-reported AEs except dissociation, any observation period following Week 1 or 4) of the same compound?
**A.** < 5 patients

**Q.** And the “patients with a moderate recurrence” value ([1]; clinician-reported AEs except dissociation, dizziness, vertigo and nausea, any observation period)?
**A.** < 10 patients

**Q.** And the “reported severity of dissociation, dizziness, nausea, sedation, vertigo, increased blood pressure” value ([1]; initial incidence and recurrence)?
**A.** mostly mild and rarely severe

**Q.** And the “clinician-reported dissociation mean recurrence severity score” value ([1]; no dissociation in Week 1, all timeframes)?
**A.** 1.3

**Q.** What about the severity of recurrences ([1]; regardless of highest severity in Weeks 1 or 4) of the same compound?
**A.** mild to moderate

**Q.** And the CADSS-defined dissociation ([2]; Months 3-6, AE once in Week 1)?
**A.** 42.7%

**Q.** And the CADSS-defined dissociation ([2]; Months 3-6, AE twice in Week 1)?
**A.** 61.3%

**Q.** And the CADSS-defined dissociation ([2]; Months 3-6, No AE in Week 1)?
**A.** 19.4%

**Q.** And the CADSS-defined dissociation ([2]; Months 3-6, overall rate for timeframe)?
**A.** 38.6%

**Q.** And the CADSS-defined dissociation ([2]; Months 6-12, AE once in Week 1)?
**A.** 26.8%

**Q.** What about the CADSS-defined dissociation ([2]; Months 6-12, AE twice in Week 1) of the same compound?
**A.** 38.7%

**Q.** What about the CADSS-defined dissociation ([2]; Months 6-12, No AE in Week 1) of the same compound?
**A.** 15.9%

**Q.** What about the CADSS-defined dissociation ([2]; Months 6-12, overall rate for timeframe) of the same compound?
**A.** 25.9%

**Q.** And the CADSS-defined dissociation ([2]; Week 1, overall rate for timeframe)?
**A.** 56.6%

**Q.** What about the CADSS-defined dissociation ([2]; Weeks 2-4, AE once in Week 1) of the same compound?
**A.** 59.1%

**Q.** And the CADSS-defined dissociation ([2]; Weeks 2-4, AE twice in Week 1)?
**A.** 88.8%

**Q.** And the CADSS-defined dissociation ([2]; Weeks 2-4, No AE in Week 1)?
**A.** 24.8%

**Q.** And the CADSS-defined dissociation ([2]; Weeks 2-4, overall rate for timeframe)?
**A.** 53.1%

**Q.** What about the CADSS-defined dissociation ([2]; Weeks 5-8, AE once in Week 1) of the same compound?
**A.** 32.5%

**Q.** What about the CADSS-defined dissociation ([2]; Weeks 5-8, AE twice in Week 1) of the same compound?
**A.** 64.6%

**Q.** What about the CADSS-defined dissociation ([2]; Weeks 5-8, No AE in Week 1) of the same compound?
**A.** 15.6%

**Q.** And the CADSS-defined dissociation ([2]; Weeks 5-8, overall rate for timeframe)?
**A.** 34.9%

**Q.** And the “patients with maximum CADSS score >42” value ([2]; human, in vivo, other: intranasal)?
**A.** < 3 patients

**Q.** What about the “measure-based dissociation not reported during Week 1, patients” value ([2]; human, in vivo, other: nasal spray (intranasal), 1 week) of the same compound?
**A.** 43%

**Q.** What about the “mean individual CADSS scores at recurrence” value ([2]; maximum CADSS total score <=14) of the same compound?
**A.** 1.2-1.4

**Q.** What about the “mean individual CADSS scores at recurrence” value ([2]; maximum CADSS total scores 15-24 and 24-42) of the same compound?
**A.** 1.3-2.1

From patent publication US20240390295A1, “METHODS FOR TREATING DEPRESSION” (JANSSEN PHARMACEUTICA NV, priority 2020, published 2024)
